Test results: patent publication US8088932B2, “Pentaaryldiamine-containing bismaleimide compound and method of producing the compound” (Industrial Technology Research Institute, priority 2008, dated 2012)

Assay: physchem
Conditions: organic solvent or mixture, thermodynamic from solid

solubility (Solubility in CHCl3): > 1000 µg/mL
solubility (Solubility in DMAc): > 1000 µg/mL
solubility (Solubility in DMF): > 1000 µg/mL
solubility (Solubility in DMSO): > 1000 µg/mL
solubility (Solubility in MeOH): < 1000 µg/mL
solubility (Solubility in NMP): > 1000 µg/mL
solubility (Solubility in THF): > 1000 µg/mL
solubility (Solubility in m-Cresol): > 1000 µg/mL
SMILES: N#Cc1ccc(N(c2ccc(C#N)cc2)c2ccc(N(c3ccc(N4C(=O)C=CC4=O)cc3)c3ccc(N4C(=O)C=CC4=O)cc3)cc2)cc1 [Compound 6, N,N-bis(4-maleimidophenyl)-N′,N′-bis(4-cyanophenyl)-1,4-phenylenediamine]
